Measured values: EP0082668A1, “5-(2-Halogenovinyl)-2'-deoxyuridine derivatives, processes for their preparation, pharmaceutical compositions containing them and their use in treating viral infections” (BEECHAM GROUP PLC, priority 1981, dated 1983)
Values joined by “and” are separate entries in the source; they are usually repeats but may differ in a detail not shown here. Equal entries are not always repeated. Where two headings read alike, the source gives them in different places.

Assays:
[1] = tested on: herpes simplex type 1 virus (HFEM strain); assay: Plaque reduction test in Vero cells infected with herpes simplex type 1 virus; type: cell-based
Procedure: (§1) Vero (African Green Monkey Kidney) cells were grown to confluence in 6 well multidishes, each well being 3.5 cm in diameter. The cells were incubated with herpes simplex type 1 virus (HFEM strain) and overlaid with 0.5 mL of 0.9% agarose (w/v) in maintenance medium containing the test compound at a range of concentrations from 100 pg/mL in half-log dilution steps. The virus infected cultures were then incubated at 37°C for 6 days before fixing in 4% formaldehyde solution and staining with carbolfuchsin. The dishes were then examined to find the concentration of test compound causing a 50% reduction in the number of virus plaques formed (PDD50 value) and the minimum concentration of test compound which killed the cell monolayer, leaving a clear zone devoid of cells and virus plaques (MTD).

[2] = Minimum concentration killing the cell monolayer (MTD), read in the plaque reduction test; type: cell-based, African Green Monkey; settings: monkey, vero cells; minimum concentration which killed the cell monolayer; virus infected Vero cultures, 6 days at 37°C
Procedure: as §1

[3] = Human alphaherpesvirus 1, 144 h, concentration causing a 50% reduction in the number of virus plaques, Vero cells, HFEM strain, 6 days at 37°C, molar, read-out: PDD50 (the source's name)
[4] = Human alphaherpesvirus 1, 144 h, concentration causing a 50% reduction in the number of virus plaques, Vero cells, HFEM strain, 6 days at 37°C, read-out: PDD50 (the source's name)
[5] = Human alphaherpesvirus 1, Vero, 144 h, read-out: PDD50

SMILES	IC50 [1, 3] [nM]	IC50 [1, 4] [µg/mL]	MCC at 144 h [2] [µg/mL]	IC50 [1, 5]
O=C(OC[C@H]1O[C@@H](n2cc(/C=C/Br)c(=O)[nH]c2=O)C[C@@H]1OC(=O)c1ccccc1)c1ccccc1 [Example 2, E-5-(2-bromovinyl)-3',5'-di-O-benzoyl-2'-deoxyuridine]	100000	54	> 100	–
O=C(OC[C@H]1O[C@@H](n2cc(/C=C/Br)c(=O)[nH]c2=O)C[C@@H]1O)c1ccccc1 [Example 3, 5'-O-benzoyl-E-5-(2-bromovinyl)-2'-deoxyuridine]	3700	1.7	> 100	–
O=C(O[C@H]1C[C@H](n2cc(/C=C/Br)c(=O)n(C(=O)c3ccccc3)c2=O)O[C@@H]1CO)c1ccccc1 [Example 10, 3-N-Benzoyl-3'-O-benzoyl-E-5-(2-bromovinyl)-2'-deoxyuridine]	3800	2.1	100	–
O=C(O[C@H]1C[C@H](n2cc(/C=C/Br)c(=O)[nH]c2=O)O[C@@H]1CO)c1ccccc1 [Example 11, 3'-O-Benzoyl-E-5-(2-bromovinyl)-2'-deoxyuridine]	3700	1.6	> 100	–
O=C(c1ccccc1)n1c(=O)c(/C=C/Br)cn([C@H]2C[C@H](O)[C@@H](CO)O2)c1=O [Example 12, 3-N-Benzoyl-E-5-(2-bromovinyl)-2'-deoxyuridine]	530	0.23	100	–
O=C(OC[C@H]1O[C@@H](n2cc(/C=C/Br)c(=O)[nH]c2=O)C[C@@H]1OC(=O)c1ccc(Cl)cc1)c1ccc(Cl)cc1 [Example 15, E-5-(2-Bromovinyl)-3',5'-di-O-p-chlorobenzoyl-2'-deoxyuridine]	121000	74	> 100	–
O=C(Cc1ccccc1)OC[C@H]1O[C@@H](n2cc(/C=C/Br)c(=O)[nH]c2=O)C[C@@H]1OC(=O)Cc1ccccc1 [Example 17, E-5-(2-Bromovinyl)-3',5'-di-0-phenylacetyl-2'-deoxyuridine]	–	–	> 100	3.9 µg/mL and 6.9 µM
O=C(OC[C@H]1O[C@@H](n2cc(/C=C/Br)c(=O)[nH]c2=O)C[C@@H]1O)c1ccc(Cl)cc1 [Example 18, E-5-(2-Bromovinyl)-5'-0-p-chlorobenzoyl-2'-deoxyuridine]	1780	0.84	> 100	–
COc1ccc(C(=O)OC[C@H]2O[C@@H](n3cc(/C=C/Br)c(=O)[nH]c3=O)C[C@@H]2O)cc1 [Example 19, E-5-(2-Bromovinyl)-5'-p-methoxybenzoyl-2'-deoxyuridine]	13500	6.3	100	–
O=C(c1ccc(Cl)cc1)n1c(=O)c(/C=C/Br)cn([C@H]2C[C@H](O)[C@@H](CO)O2)c1=O [Example 20, E-5-(2-Bromovinyl)-3-N-p-chlorobenzoyl-2'-deoxyuridine]	250	0.12	> 100	–
COc1ccc(C(=O)n2c(=O)c(/C=C/Br)cn([C@H]3C[C@H](O)[C@@H](CO)O3)c2=O)cc1 [Example 21, E-5-(2-Bromovinyl)-3-N-p-methoxybenzoyl-2'-deoxyuridine]	540	0.25	> 100	–
C[Si](C)(C)OC[C@H]1O[C@@H](n2cc(/C=C/Br)c(=O)[nH]c2=O)C[C@@H]1O[Si](C)(C)C [Example 22, E-5-(2-Bromovinyl)-3',5'-bis-O-trimethylsilyl-2'-deoxyuridine]	–	–	> 100	0.24 µg/mL and 500 nM
CCCCC(=O)n1c(=O)c(/C=C/Br)cn([C@H]2C[C@H](O)[C@@H](CO)O2)c1=O [Example 23, E-5-(2-Bromovinyl)-3-N-valeryl-2'-deoxyuridine]	620	0.26	> 100	–
CC(C)(C)C(=O)n1c(=O)c(/C=C/Br)cn([C@H]2C[C@H](O)[C@@H](CO)O2)c1=O [Example 24, E-5-(2-Bromovinyl)-3-N-pivaloyl-2'-deoxyuridine]	1100	0.46	> 100	–
O=C(C1CCCCC1)n1c(=O)c(/C=C/Br)cn([C@H]2C[C@H](O)[C@@H](CO)O2)c1=O [Example 25, E-5-(2-Bromovinyl)-3-N-cyclohexanecarbonyl-2^1-deoxyuridine]	720	0.32	> 100	–
O=C(c1cccc(Cl)c1)n1c(=O)c(/C=C/Br)cn([C@H]2C[C@H](O)[C@@H](CO)O2)c1=O [Example 26, E-5-(2-Bromovinyl)-3-N-(3-chlorobenzoyl)-2^1-deoxyuridine]	530	0.25	> 100	–
CCCN(CCC)S(=O)(=O)c1ccc(C(=O)OC[C@H]2O[C@@H](n3cc(/C=C/Br)c(=O)[nH]c3=O)C[C@@H]2O)cc1 [Example 29, E-5-(2-Bromovinyl)-5'-p-(dipropylsulphamoyl)benzoyl-2'-deoxyuridine]	1870	1.12	> 100	–
CCCN(CCC)S(=O)(=O)c1ccc(C(=O)n2c(=O)c(/C=C/Br)cn([C@H]3C[C@H](O)[C@@H](CO)O3)c2=O)cc1 [Example 30, E-5-(2-Bromovinyl)-3-[4-(N,N-di-n-propylsulphamoyl)benzoyl]-2'-deoxyuridine]	180	0.11	> 100	–
O=C(OC[C@H]1O[C@@H](n2cc(/C=C/Br)c(=O)[nH]c2=O)C[C@@H]1OC(=O)c1ccc([N+](=O)[O-])cc1)c1ccc([N+](=O)[O-])cc1 [Example 31, E-5-(2-bromovinyl)-3',5'-di-O(4-nitrobenzoyl)-2-deoxy-uridine]	–	–	> 100	20 µg/mL and 32 µM
O=C(OC[C@H]1O[C@@H](n2cc(/C=C/Br)c(=O)[nH]c2=O)C[C@@H]1O)c1ccc([N+](=O)[O-])cc1 [Example 32, E-5-(2-Bromovinyl)-5' -O-(4-nitrobenzoyl)-2'-deoxyuridine]	2000	0.95	> 100	–
O=C(OC[C@H]1O[C@@H](n2cc(/C=C/Br)c(=O)[nH]c2=O)C[C@@H]1OC(=O)c1ccc(Cl)c(Cl)c1)c1ccc(Cl)c(Cl)c1 [Example 33, E-5-(2-bromovinyl)-3',5'-di-O-(3,4-dichlorobenzoyl)-2'-deoxyuridine]	147000	100	> 100	–
O=C(O[C@H]1C[C@H](n2cc(/C=C/Br)c(=O)[nH]c2=O)O[C@@H]1CO)c1ccc(Cl)c(Cl)c1 [Example 34, E-5-(2-bromovinyl)-3'-O-(3,4-dichlorobenzoyl)-2'-deoxyuridine]	2300	1.2	> 100	–
O=C(OC[C@H]1O[C@@H](n2cc(/C=C/Br)c(=O)[nH]c2=O)C[C@@H]1O)c1ccc(Cl)c(Cl)c1 [Example 35, E-5-(2-Bromovinyl)-5' -O-(3 ,4-dichlorobenzoyl)-2'-deoxyuridine]	2800	1.4	> 100	–
Cc1ccc(C(=O)O[C@H]2C[C@H](n3cc(/C=C/Br)c(=O)[nH]c3=O)O[C@@H]2CO)cc1 [Example 37, E-5-(2-bromovinyl)-3'-O-(4-methylbenzoyl)-2'-deoxyuridine]	1400	0.63	> 100	–
Cc1ccc(C(=O)OC[C@H]2O[C@@H](n3cc(/C=C/Br)c(=O)[nH]c3=O)C[C@@H]2O)cc1 [Example 38, E-5-(2-Bromovinyl)-5'-O-(4-methylbenzoyl)-2' -deoxyuridine]	1700	0.78	> 100	–
CCCCc1ccc(C(=O)OC[C@H]2O[C@@H](n3cc(/C=C/Br)c(=O)[nH]c3=O)C[C@@H]2O)cc1 [Example 40, E-5-(2-bromovinyl)-5'-0-(4-n-butylbenzoyl)-2'-deoxyuridine]	12000	6.1	> 100	–
CN(C)c1ccc(C(=O)O[C@H]2C[C@H](n3cc(/C=C/Br)c(=O)[nH]c3=O)O[C@@H]2CO)cc1 [Example 42, E-5-{2-bromovinyl)-3'-O-(4-N,N-dimethylaminobenzoyl)-2'-deoxyuridine]	1400	0.63	> 100	–
CN(C)c1ccc(C(=O)O[C@H]2C[C@H](n3cc(/C=C/Br)c(=O)n(C(=O)c4ccc(N(C)C)cc4)c3=O)O[C@@H]2CO)cc1 [Example 48, E-5-(2-Bromovinyl)-3-N-(p-dimethylaminobenzoyl)-3'-O-(p-dimethylaminobenzoyl)-2'-deoxyuridine]	940	0.47	> 100	–
Cc1ccccc1C(=O)O[C@H]1C[C@H](n2cc(/C=C/Br)c(=O)n(C(=O)c3ccccc3C)c2=O)O[C@@H]1CO [Example 49]	1100	0.55	100	–
